# Patent publication US11555179B2, “Identification of subpopulations of cardiomyocytes” (The University of Hong Kong, priority 2019, dated 2023)
# How the values were obtained:
# [1] = test system: CD36^+ hESC-CMs; assay: Doxorubicin-induced cardiotoxicity (XTT viability, TMRE/MTG Δψm); assay type: cell-based, human; settings: for effect on cell viability upon dox treatment (XTT): pre-treatment (NAC 1 mM, 1 hr), FIGS. 5I-K show mixed, CD36^+ and CD36^− hESC-CMs
# Procedure: FIGS. 5A and 5B are bar graphs showing the normalized levels of cell viability (A) and mitochondrial membrane potential Δψm (B) of mixed (unsorted) hESC-CMs, CD36^+ hESC-CMs, and CD36^− hESC-CMs after exposure to doxorubicin (dox). The hESC-CMs were treated with 1 mM dox for 24 hrs. Cell viability and mitochondrial membrane potential Δψm were determined by the XTT and TMRE/MTG assays (n=9 and 7), respectively, and normalized to untreated hESC-CMs.
# (C) and (D): viability and Δψm for unsorted hESC-CMs; (E) and (F): viability and Δψm for CD36^+ hESC-CMs; (G) and (H): viability and Δψm for CD36^− hESC-CMs. The cells in the “Dox” groups were treated with 1 mM dox for 24 hrs; the cells in the “Dox+DRZ” groups were pre-treated with […] DRZ for 1 hr, followed by co-treatment with 1 mM dox for 24 hrs. Cell viability and mitochondrial membrane potential Δψm were determined by the XTT and TMRE/MTG assays (n=7 and 9), respectively, and normalized to untreated hESC-CMs (i.e., the “Control” groups). *p<0.05, **p<0.01, ***p<0.001.
# The cells in the “Dox” groups were treated with 1 mM dox for 24 hrs; the cells in the “Dox+NAC” groups were pre-treated with 1 mM NAC for 1 hr, followed by co-treatment with 1 mM dox for 24 hrs. Cell viability was determined by the XTT assay (n=4) and normalized to untreated cells (i.e., the “Control” groups).
# [2] = test system: hPSC-CMs; settings: unsorted hPSC-CMs as currently utilized; cited from earlier work
# [3] = dexrazoxane-treated pediatric patients, two randomized studies; cited from earlier work
# [4] = test system: CD172A^+/CD36^+ hESC-CMs; settings: 100 μM hydrogen peroxide for 30 min
# Procedure: (§1) FIGS. 4A-4D are bar graphs showing the relative levels of mitochondrial superoxide (A), mitochondrial membrane potential Δψm (B), nuclear condensation (C), and cell viability (D) in CD172A^+/CD36^+/−, CD172A^+/CD36^+, and CD172A^+/CD36^− hECS-CMs after exposure to 100 μM hydrogen peroxide for 30 min. The relative levels of mitochondrial superoxide, mitochondrial membrane potential, nuclear condensation, and cell viability were determined using the MitoSOX™ red dye (n=5), TMRE staining (n=5, calibrated by mitochondrial mass based on the result of MTG staining), Hoechst staining (n=5), and PrestoBlue® staining (n=9), respectively. *p<0.05, **p<0.01, ***p<0.001.
# (§2) The responses of mitochondrial function to oxidative stress were examined in subpopulations of hESC-CMs.
# [5] = test system: CD172A^+/CD36^+/− hESC-CMs; settings: 100 μM hydrogen peroxide for 30 min
# Procedure: as §1, §2
# [6] = test system: CD172A^+/CD36^− hESC-CMs; settings: 100 μM hydrogen peroxide for 30 min
# Procedure: as §1, §2
# [7] = doses exceeding 550 mg/m^2; cited from earlier work
# [8] = test system: CD172A^+/CD36^+ hESC-CMs; assay: Mitochondrial membrane potential (TMRE) with oleic acid supplementation; assay type: cell-based, human; settings: nutrient-deficient media lacking fatty acids, plus oleic acid, FIG. 3B
# Procedure: (§3) FIG. 3A is a bar graph showing the uptake of fatty acid (FA) by C[…]^+/CD36^+ (black) and C[…]^+/CD36^- (white) hESC-CMs. The FA uptake assay was performed using a BODIPY-labeled C16 palmitate analog (n=6). FIG. 3B is a bar graph showing the relative levels of mitochondrial membrane potential Δψm in C[…]^+/CD36^+ and C[…]^+/CD36^- hESC-CMs cultured in the absence (black) and presence (gray) of oleic acid (n=5). […] In addition to enhanced mitochondrial output, adult CMs were characterized by their preference for fatty acid as fuel for energy production. In CMs, CD36 functions as a fatty acid translocase to facilitate the uptake of long-chain fatty acids such as palmitic and oleic acids, thus increased level of this protein is expected to enhance fatty acid entry into cells. […] Additional experiments were performed to test whether increased fatty acid uptake led to increased metabolic output. When cultured in nutrient-deficient media lacking fatty acids, C[…]^+/CD36^+ and C[…]^+/CD36^- CMs had similar Δψm.
# [9] = test system: CD172A^+/CD36^− hESC-CMs; assay: as above; assay type: cell-based, human; settings: nutrient-deficient media lacking fatty acids, plus oleic acid, FIG. 3B
# Procedure: as §3
# [10] = test system: mouse models of DCT; settings: in vivo; cited from earlier work
# [11] = in vivo; cited from earlier work
# [12] = then co-treatment with 1 mM dox 24 hrs
molecule,measurement,setting,value
C[C@@H](CN1CC(=O)NC(=O)C1)N1CC(=O)NC(=O)C1 [dexrazoxane],protective effect against DCT (viability and Δψm),"[1]; 200 mM DRZ pre-treatment 1 hr, then co-treatment with 1 mM dox 24 hrs, CD36^+ hESC-CMs, FIGS. 5E, 5F",responded to the protective effect
same,protection of hPSC-CMs against DCT,[2],failed to protect
same,incidence of second primary malignancies (myelodysplastic syndrome and acute myeloid leukemia),[3],threefold increase
OO [hydrogen peroxide],mitochondrial superoxide (MitoSOX red dye),[4]; FIG. 4A,3.5±0.3 fold
same,"relative mitochondrial membrane potential Δψm (TMRE, calibrated by MTG)",[4]; FIG. 4B,0.17±0.03
same,nuclear condensation (Hoechst staining),[4]; FIG. 4C,73±8%
same,mitochondrial superoxide (MitoSOX red dye),[5]; FIG. 4A,2.2±0.4 fold
same,"relative mitochondrial membrane potential Δψm (TMRE, calibrated by MTG)",[5]; FIG. 4B,0.30±0.03
same,nuclear condensation (Hoechst staining),[5]; FIG. 4C,46±15%
same,mitochondrial superoxide (MitoSOX red dye),[6]; FIG. 4A,1.7±1.2 fold
same,"relative mitochondrial membrane potential Δψm (TMRE, calibrated by MTG)",[6]; FIG. 4B,0.35±0.04
same,nuclear condensation (Hoechst staining),[6]; FIG. 4C,32%±11
"COc1cccc2c1C(=O)c1c(O)c3c(c(O)c1C2=O)C[C@@](O)(C(=O)CO)C[C@@H]3O[C@H]1C[C@H](N)[C@H](O)[C@H](C)O1 [dox, Doxorubicin]",cell viability upon dox treatment (XTT),"[1]; 1 mM dox for 24 hrs, CD36^+ hESC-CMs compared to mixed (unsorted) or CD36^− CMs, FIG. 5A",more severe decrease
same,mitochondrial membrane potential (Δψm) upon dox treatment (TMRE/MTG),"[1]; 1 mM dox for 24 hrs, CD36^+ hESC-CMs compared to mixed (unsorted) or CD36^− CMs, FIG. 5B",more severe decrease
same,onset of dox-induced cell degeneration,[1]; CD36^+ hESC-CMs compared to mixed (unsorted) or CD36^− CMs,accelerated onset
same,incidence of congestive heart failure,[7],exceeds 30%
CCCCCCCC/C=C\CCCCCCCC(=O)O [oleic acid],increase in magnitude of Δψm on supplementation with oleic acid,[8],43.0%
same,increase in magnitude of Δψm on supplementation with oleic acid,[9],22.9%
vitamin E,effect on cell viability upon dox treatment (XTT),[1]; [12],did not increase cell viability
CC(=O)N[C@@H](CS)C(=O)O [N-acetylcysteine],effect on cell viability upon dox treatment (XTT),[1]; [12],did not increase cell viability
same,protection of hPSC-CMs against DCT,[2],rescued
same,efficacy in mouse models of DCT,[10],effective
same,outcome in clinical trials (DCT),[11],unsuccessful
